For one assay, the target named is T1, recombinant human KDM4A (Homo sapiens, UniProt O75164).
T1 construct: made in house
T1 sequence (O75164 1-359 limits assumed): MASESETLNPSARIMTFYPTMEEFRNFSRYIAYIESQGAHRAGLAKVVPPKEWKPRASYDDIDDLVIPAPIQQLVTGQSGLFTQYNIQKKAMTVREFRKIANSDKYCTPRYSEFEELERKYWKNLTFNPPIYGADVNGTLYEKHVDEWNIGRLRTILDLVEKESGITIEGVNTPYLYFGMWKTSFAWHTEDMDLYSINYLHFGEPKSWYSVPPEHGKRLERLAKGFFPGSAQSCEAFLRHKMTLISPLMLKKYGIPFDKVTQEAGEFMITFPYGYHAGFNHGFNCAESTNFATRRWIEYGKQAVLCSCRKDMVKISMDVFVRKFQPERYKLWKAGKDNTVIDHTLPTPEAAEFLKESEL
The assay is described as follows: 14CO2 capture enzymatic assay (decarboxylation of [1-14C] αKG), KDM4A. In kind it is biochemical. The settings on record: 10 μM [1-14C] αKG, 90 μM non-labeled αKG, 50 μM peptide substrate, 37° C., 1 hour, final 1% DMSO. As to the method: (§1) Enzymatic activity was determined based on the capture of ^14CO2 released by the decarboxylation of [1-^14C] αKG (Zhang et al., Anal. Biochem., 1998, vol. 271, pp. 137-142). [1-^14C]alphaketoglutarate (αKG) was from Perkin-Elmer, H3K4me3 and H3K9me3 peptides were from Mimotopes. All other reagents were from Sigma. Reaction mixtures included the following components: Fe(SO4), [1-^14C] αKG, non-labeled αKG, ascorbate, peptide-substrate (H3K4me3: H-ARTK(me3)QTARKSTGGKAPRKQLA-OH. H3K9me3: H-ARTKQTARK(me3)STGGKAPRKQLA-OH), NaCl, Tween-20 and catalase in 25 mM HEPES buffer, pH 7.4. The enzymatic reactions were initiated by addition of recombinant human KDM5B or KDM4A enzyme (truncated enzyme produced in house by method and using sequence disclosed in Ng et al, Nature 448:87-91, 2007). The reactions were performed in 96-well microtiter plates (20 μL total assay volume) (Greiner #650201). ^14CO2 was captured on a glass fiber filter paper (Cat. No. IH-201-A, Inotech Biosystems International) soaked with saturated Ba(OH)2 that was laid on top of the 96-well plate. A microtiter plate sealer film (Thermal Seal cat #T7961100) was applied to the filter paper. The plate and filter paper were sandwiched between two custom made aluminum plates (Advanced Component Manufacturing, Burlingame, CA) and transferred to a 37° C. oven and allowed to incubate for 1 hour. After incubation, the filter paper was dried in a 103° C. oven for 40-60 minutes. To determine percent turnover, aliquots of the reaction mixture were spotted onto the filter paper and the filter paper was dried again. The dry filter paper was exposed to a storage phosphor screen for 24-72 hours and the images recorded using a Typhoon FLA 7000 Imager (Amersham Biosciences, Piscataway, NJ). Integrated spot intensities corresponding to control reactions lacking the enzyme were subtracted from integration results for enzyme containing reactions and data were converted to enzyme dependent percent ^14CO2 release. All enzymatic reactions were run in duplicates.
(§2) For IC50 determination, a 3-fold dilution series of compound was prepared and added to the reaction mixture (final 1% DMSO, v/v) prior to enzyme addition. The final reagent concentrations were: 10 μM Fe(SO4), 10 μM [1-^14C] αKG, 90 μM non-labeled αKG, 2 mM ascorbate, 50 μM peptide substrate, 75 mM NaCl, 0.01% Tween-20 and ˜2 units/μL catalase. IC50s were determined by non-linear fitting using Grafit version 7.0.

For another assay, the target named is T2, recombinant human KDM5B (Homo sapiens, UniProt Q9UGL1).
T2 sequence (Q9UGL1 374-755 limits assumed): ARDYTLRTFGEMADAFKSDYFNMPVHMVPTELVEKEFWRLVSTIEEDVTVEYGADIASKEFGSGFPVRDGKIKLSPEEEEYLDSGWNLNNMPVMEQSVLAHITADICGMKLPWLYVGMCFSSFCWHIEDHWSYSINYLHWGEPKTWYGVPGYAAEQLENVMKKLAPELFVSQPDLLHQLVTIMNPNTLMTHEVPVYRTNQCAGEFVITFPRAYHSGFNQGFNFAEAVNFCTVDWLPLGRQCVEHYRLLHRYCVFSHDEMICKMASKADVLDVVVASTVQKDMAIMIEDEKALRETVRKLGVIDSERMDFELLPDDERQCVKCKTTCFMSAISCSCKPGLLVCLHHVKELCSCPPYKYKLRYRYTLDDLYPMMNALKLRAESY
The assay is described as follows: 14CO2 capture enzymatic assay (decarboxylation of [1-14C] αKG), KDM5B. Type of assay: biochemical. The note with it: 10 μM [1-14C] αKG, 90 μM non-labeled αKG, 50 μM peptide substrate, 37° C., 1 hour, final 1% DMSO. As to the method:
as §1, §2

Some results are limits rather than exact numbers.

With `N#Cc1cc(C(F)(F)F)nc(C(=O)CCC(=O)O)c1O` [Example 35, 4-(4-Cyano-3-hydroxy-6-trifluoromethyl-pyridin-2-yl)-4-oxo-butyric acid], the 50% inhibitory concentration (IC50) on recombinant human KDM4A came out at 12000 nM; at recombinant human KDM5B it was 50 nM.

As for `N#Cc1cc(-c2ccccc2Cl)cc(C(=O)CCC(=O)O)c1O` [Example 119, 4-(2′-Chloro-5-cyano-4-hydroxy-biphenyl-3-yl)-4-oxo-butyric acid], the IC50 was greater than 40000 nM on recombinant human KDM4A and 280 nM at recombinant human KDM5B.

Regarding `N#Cc1cc(Cc2ccccc2-c2ccccc2)nc(C(=O)CCC(=O)O)c1O` [Example 52, 4-(6-Biphenyl-2-ylmethyl-4-cyano-3-hydroxy-pyridin-2-yl)-4-oxo-butyric acid], the values for the IC50 at recombinant human KDM4A and on recombinant human KDM5B were greater than 40000 nM and 300 nM, respectively.

Turning to `Cc1ccc(Oc2cc(C#N)c(O)c(C(=O)CCC(=O)O)c2)cc1` [Example 139, 4-(3-Cyano-2-hydroxy-5-p-tolyloxy-phenyl)-4-oxo-butyric acid], the results for the IC50 on recombinant human KDM4A and on recombinant human KDM5B were greater than 40000 nM and 560 nM, respectively.

Regarding `O=C(O)CCC(=O)c1nc(Br)cc(Br)c1O` [Example 1, 4-(4,6-Dibromo-3-hydroxy-pyridin-2-yl)-4-oxo-butyric acid], the figures for the half-maximal inhibitory concentration (IC50) on recombinant human KDM4A and on recombinant human KDM5B were 36000 nM and 450 nM, respectively.

Take `N#Cc1cc(-c2ccc(Cl)cc2)nc(C(=O)CCC(=O)O)c1O` [Example 22, 4-[6-(4-Chloro-phenyl)-4-cyano-3-hydroxy-pyridin-2-yl]-4-oxo-butyric acid]: the IC50 at recombinant human KDM4A is no less than 40000 nM; on recombinant human KDM5B it was 180 nM.

As to `Cc1ccc(-c2cc(C#N)c(O)c(C(=O)CCC(=O)O)n2)c(C)c1` [Example 93, 4-[4-Cyano-6-(2,4-dimethyl-phenyl)-3-hydroxy-pyridin-2-yl]-4-oxo-butyric acid], the concentration for half-maximal inhibition (IC50) at recombinant human KDM4A was greater than 40000 nM; at recombinant human KDM5B, 330 nM.

With `N#Cc1cc(-c2ccccc2Cl)nc(C(=O)CCC(=O)O)c1O` [Example 70, 4-[6-(2-Chloro-phenyl)-4-cyano-3-hydroxy-pyridin-2-yl]-4-oxo-butyric acid], the 50% inhibitory concentration (IC50) is greater than 40000 nM on recombinant human KDM4A and 300 nM on recombinant human KDM5B.

In the case of `N#Cc1cc(-c2ccccn2)nc(C(=O)CCC(=O)O)c1O` [Example 11, 4-(4-Cyano-5-hydroxy-[2,2′]bipyridinyl-6-yl)-4-oxo-butyric acid], the half-maximal inhibitory concentration (IC50) was greater than 40000 nM on recombinant human KDM4A and 590 nM on recombinant human KDM5B.

In the case of `N#Cc1cc(Oc2ccccc2)nc(C(=O)CCC(=O)O)c1O` [Example 76, 4-(4-Cyano-3-hydroxy-6-phenoxy-pyridin-2-yl)-4-oxo-butyric acid], the IC50 is greater than 40000 nM on recombinant human KDM4A and 190 nM on recombinant human KDM5B.

As for `COc1cccc(-c2cc(C#N)c(O)c(C(=O)CCC(=O)O)n2)c1Cl` [Example 114, 4-[6-(2-Chloro-3-methoxy-phenyl)-4-cyano-3-hydroxy-pyridin-2-yl]-4-oxo-butyric acid], the IC50 on recombinant human KDM4A came to 10000 nM; on recombinant human KDM5B it was 140 nM.

On to `Cc1c(-c2cc(C#N)c(O)c(C(=O)CCC(=O)O)n2)cccc1C(F)(F)F` [Example 95, 4-[4-Cyano-3-hydroxy-6-(2-methyl-3-trifluoromethyl-phenyl)-pyridin-2-yl]-4-oxo-butyric acid], for which the figures for the half-maximal inhibitory concentration (IC50) at recombinant human KDM4A and at recombinant human KDM5B were greater than 40000 nM and 350 nM, respectively.

As to `N#Cc1cc(Sc2ccccc2)nc(C(=O)CCC(=O)O)c1O` [Example 78, 4-(4-Cyano-3-hydroxy-6-phenylsulfanyl-pyridin-2-yl)-4-oxo-butyric acid], the 50% inhibitory concentration (IC50) is greater than 40000 nM at recombinant human KDM4A and 90 nM on recombinant human KDM5B.

As for `N#Cc1cc(-c2ccc(F)c3ccccc23)nc(C(=O)CCC(=O)O)c1O` [Example 109, 4-[4-Cyano-6-(4-fluoro-naphthalen-1-yl)-3-hydroxy-pyridin-2-yl]-4-oxo-butyric acid], the IC50 is greater than 40000 nM on recombinant human KDM4A and 250 nM at recombinant human KDM5B.

As to `Cc1ccccc1Oc1cc(C#N)c(O)c(C(=O)CCC(=O)O)c1` [Example 140, 4-(3-Cyano-2-hydroxy-5-o-tolyloxy-phenyl)-4-oxo-butyric acid], the results for the IC50 at recombinant human KDM4A and at recombinant human KDM5B were greater than 40000 nM and 330 nM, respectively.

A word on the IC50: it is the concentration needed to halve the response being measured.

The values are drawn from patent US20240002344A1, “COMPOUNDS, COMPOSITIONS AND METHODS FOR HISTONE LYSINE DEMETHYLASE INHIBITION” (FibroGen, Inc., priority 2020, published 2024).
